According to article PMC3257521 (Biochemistry, 2011):
Substitutions are numbered along the chain they refer to. Names and notes keep the numbering of the source. Values joined by “and” are separate entries in the source; they are usually repeats but may differ in a detail not shown here. Equal entries are not always repeated.

B1: C167A (protein, UniProt P53184 1-216, looked up, variant C167A)
Nicotinamidase: MKTLIVVDMQNDFISPLGSLTVPKGEELINPISDLMQDADRDWHRIVVTRDWHPSRHISFAKNHKDKEPYSTYTYHSPRPGDDSTQEGILWPVHCVKNTWGSQLVDQIMDQVVTKHIKIVDKGFLTDREYYSAFHDIWNFHKTDMNKYLEKHHTDEVYIVGVALEYAVKATAISAAELGYKTTVLLDYTRPISDDPEVINKVKEELKAHNINVVDK
B2: K122R (protein, UniProt P53184 1-216, looked up, variant K122R)
Nicotinamidase: B1 Nicotinamidase with K122R, A167C

How the values were obtained:
Pnc1 [1] = target: T1, Pnc1 (Saccharomyces cerevisiae, UniProt P53184); assay type: biochemical, S. cerevisiae
Pnc1 [2] = target: T1, Pnc1; experiment: 15N kinetic isotope effect with substrates; assay type: biochemical, S. cerevisiae
Pnc1 [3] = target: T1, Pnc1; experiment: 13C kinetic isotope effect with substrates; assay type: biochemical, S. cerevisiae
[4] = tested on: nicotinamidase from M. lysodeikticus; conditions: cited from earlier work
[5] = Literature hydrolysis in basic solution; assay type: physicochemical; conditions: 25 °C in 0.1 N NaOH
[6] = 25 °C in 0.1 N NaOH; cited from earlier work
Pnc1 [7] = target: T1, Pnc1; experiment: Dependence of kcat on pH; assay type: biochemical, S. cerevisiae; conditions: pH 4.5 to 10.5
yeast nicotinamidases = conditions: previous reports; cited from earlier work
[8] = tested on: nicotinamidase from S. cerevisiae; conditions: cited from earlier work
[9] = tested on: nicotinamidase from M. tuberculosis; conditions: cited from earlier work
Pnc1 WT or mutant [10] = target: Pnc1 WT or mutant (Saccharomyces cerevisiae, UniProt P53184, C167A); experiment: Steady-state kinetic parameters of Pnc1 mutants, enzyme-coupled assay; assay type: biochemical, S. cerevisiae; conditions: substrate nicotinamide
Pnc1 WT or mutant [11] = experiment: as above; assay type: biochemical, S. cerevisiae; conditions: substrate nicotinamide; for kcat: pH 7.5
Pnc1 WT or mutant [12] = experiment: 15N kinetic isotope effect of Pnc1 mutants; assay type: biochemical, S. cerevisiae; conditions: substrate nicotinamide, pH 7.5
Pnc1 WT or mutant [13] = target: Pnc1 WT or mutant (Saccharomyces cerevisiae, UniProt P53184, K122R); experiment: 13C kinetic isotope effect of Pnc1 mutants; assay type: biochemical, S. cerevisiae; conditions: substrate nicotinamide
Pnc1 WT or mutant [14] = experiment: 13C kinetic isotope effect of Pnc1 mutants; assay type: biochemical, S. cerevisiae; conditions: substrate nicotinamide, pH 7.5

T1 sequence (P53184 whole entry): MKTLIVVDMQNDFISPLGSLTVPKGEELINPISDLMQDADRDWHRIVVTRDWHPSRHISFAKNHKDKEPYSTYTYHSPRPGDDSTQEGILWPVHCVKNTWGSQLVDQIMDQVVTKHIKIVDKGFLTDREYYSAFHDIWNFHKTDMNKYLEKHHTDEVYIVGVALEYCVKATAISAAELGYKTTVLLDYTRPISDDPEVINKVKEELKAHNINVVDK
Sequence of Pnc1 WT or mutant (Saccharomyces cerevisiae, UniProt P53184, K122R) (P53184 whole entry K122R): as the sequence (P53184 whole entry) above, with K122R counted along it

Row | Molecule | fold higher Km compared to nicotinamide (Pnc1 [1]) | 15N KIE (Pnc1 [2]; on V/K, pH 7.5) | 13C KIE (Pnc1 [3]; on V/K, pH 7.5) | fold decreased kcat/Km compared to nicotinamide (Pnc1 [1]) | pseudo-first-order rate of hydrolysis in basic solutions [6] | 15N KIE (Pnc1 [2]; as percent) | 13C KIE (Pnc1 [3]; as percent) | kcat (Pnc1 WT or mutant [11]) | further results
1 | Cc1cncc(C(N)=O)c1 [5-methylnicotinamide] | 6 fold | 1.0151 ± 0.0009 | 1.0269 ± 0.0037 | – | – | – | – | – | Km [4]: 360 µM
2 | NC(=O)c1ccccc1 [benzamide] | – | – | – | 200 fold | 0.00408 h⁻¹ | – | – | – | fold lower kcat compared to nicotinamide (Pnc1 [1]): 78 fold; fold slower hydrolysis rate compared to nicotinamide [5]: 7 fold
3 | NC(=O)c1cccnc1 [nicotinamide] | – | 1.0122 ± 0.0002 | 1.0125 ± 0.0004 | – | 0.0301 h⁻¹ | ~ 1.2% and 1.2% | ~ 1.2% | – | kcat (Pnc1 [1]; substrate of Pnc1, pH 7.5): 0.69 s⁻¹; critical ionizations in kcat pH profile (Pnc1 [7]): no critical ionizations; variation of kcat between the pH extremes (Pnc1 [7]): 4 fold; Km (yeast nicotinamidases): 6 to 10 µM
4 | NC(=O)c1cnccn1 [pyrazinamide] | 16 fold | 1.0231 ± 0.0007 | 1.0196 ± 0.0023 | 4.5 fold | – | 2.3% | 2.0% | – | fold faster kcat compared to nicotinamide (Pnc1 [1]): 3.7 fold; Km [8]: 200 µM; Km [9]: 300 µM
5 | B1 | – | – | – | – | – | – | – | < 0.0005 s⁻¹ | nicotinamidase activity (Pnc1 WT or mutant [10]): lost all detectable nicotinamidase activity
6 | B2 | – | – | – | – | – | – | – | 0.0009 ± 0.0002 s⁻¹ | fold lower kcat compared to Pnc1 WT (Pnc1 WT or mutant [11]): 767 fold; 15N KIE (Pnc1 WT or mutant [12]): 1.0127 ± 0.0003; 13C effect higher than wild-type enzyme (Pnc1 WT or mutant [13]): ~ 0.4%; 13C KIE (Pnc1 WT or mutant [14]): 1.0172 ± 0.0001
